# Test results as given in ChEMBL document CHEMBL1141810, “Excavatolides F-M, new briarane diterpenes from the gorgonian Briareum excavatum” (1999).
# Tests used:
# Assay type in all cases: functional
# Details in all cases: read-out: ED50 (the source's name)
# P388 = assay: Cytotoxicity against mouse P388 cells by MTT assay
# KB = assay: Cytotoxicity against human KB cells by MTT assay
# A549 = assay: Cytotoxicity against human A549 cells by MTT assay
# HT-29 = assay: Cytotoxicity against human HT-29 cells by MTT assay
SMILES,EC50 (P388) [µg/mL],EC50 (KB) [µg/mL],EC50 (A549) [µg/mL],EC50 (HT-29) [µg/mL]
CCCC(=O)O[C@H]1C[C@H](OC(C)=O)[C@@]2(C)[C@H]([C@H]1C)[C@@H](OC(C)=O)[C@]13O[C@@]1(C)C(=O)O[C@H]3/C=C(C)\C=C\[C@@H]2OC(C)=O [EXCAVATOLIDE F],6.2,7,5.2,5.5
CC(=O)O[C@H]1C[C@H](OC(C)=O)[C@@]2(C)[C@H]([C@H]1C)[C@@H](OC(C)=O)[C@]13O[C@@]1(C)C(=O)O[C@H]3/C=C(/C)CC[C@H]2OC(C)=O [EXCAVATOLIDE G],15.7,> 50,22.8,> 50
CCCC(=O)O[C@H]1C[C@H](OC(C)=O)[C@@]2(C)[C@H]([C@H]1C)[C@@H](OC(C)=O)[C@]13O[C@@]1(C)C(=O)O[C@H]3/C=C(/C)C[C@H](OC(=O)CCC)[C@H]2OC(C)=O [EXCAVATOLIDE H],> 50,> 50,> 50,> 50
CCCC(=O)O[C@H]1C/C(C)=C\[C@@H]2OC(=O)[C@]3(C)O[C@]23[C@H](OC(C)=O)[C@H]2[C@@H](C)[C@@H](OC(C)=O)C[C@H](OC(C)=O)[C@]2(C)[C@@H]1OC(C)=O [EXCAVATOLIDE I],> 50,> 50,> 50,> 50
CCCC(=O)O[C@H]1C[C@H](OC(C)=O)[C@@]2(C)[C@H]([C@H]1C)[C@@H](OC(C)=O)[C@]13O[C@@]1(C)C(=O)O[C@H]3/C=C(/C)C[C@H](OC(C)=O)[C@H]2OC(C)=O [EXCAVATOLIDE J],3.8,6.5,5.2,5.2
CC(=O)O[C@H]1C[C@H](OC(C)=O)[C@@]2(C)[C@H]([C@H]1C)[C@@H](OC(C)=O)[C@]13O[C@@]1(C)C(=O)O[C@H]3/C=C(/C)C[C@H](OC(C)=O)[C@H]2OC(C)=O [EXCAVATOLIDE K],0.9,3.3,3,1.3
CC(=O)O[C@H]1C/C(C)=C\[C@@H]2OC(=O)[C@]3(C)O[C@]23[C@H](O)[C@H]2[C@@H](C)[C@@H](O)C[C@H](OC(C)=O)[C@]2(C)[C@@H]1O [EXCAVATOLIDE M],0.001,1,0.1,2.2
